From US11786548B2, “Trace element compositions, methods of making and use” (priority 2020, dated 2023) come the findings set out here.

Where “and” joins values, the source holds several entries; their conditions need not be identical. Identical values can stand only once.

The data set can be described thus: Stability study of injectable trace element composition in parenteral nutrition admixtures (assay test for zinc, copper, selenium, manganese). The data set is classed as physicochemical. The text has this: In order to establish stability data for parenteral nutrition admixed with the injectable compositions of trace elements, we conducted a stability study of injectable trace element composition (trace elements injectable composition, USP) in parenteral nutrition admixtures (assay test); a pH study of parenteral nutrition (PN) admixtures upon addition of injectable trace element composition (trace elements injectable composition, USP); a compatibility study of injectable trace element composition (trace elements injectable composition, USP) in parenteral nutrition admixtures; and a reduced inoculation antimicrobial effectiveness study for injectable trace element composition (trace elements injectable composition, USP) in parenteral nutrition admixtures. […]

As for `O.O.O.O.O.O=S(=O)([O-])[O-].[Cu+2]` [Copper, cupric sulfate pentahydrate], the “Assay Day 0” value turned out to be 109.7%; the “Assay Day 5” value was 98.7% and 98.8%; the “Assay Day 7” value is 97.8%; the “Assay Day 10” value came to 99.9%. Moreover, the “Assay Day 14” value is 105.5% and 106.0%.
Regarding `O.O.O.O.O.O.O.O=S(=O)([O-])[O-].[Zn+2]` [Zinc, zinc sulfate heptahydrate], the “Assay Day 0” value is 96.5% and 98.5%; the “Assay Day 5” value is 93.9% and 94.4%; the “Assay Day 7” value is 93.8% and 96.5%; the “Assay Day 10” value was 97.0% and 96.2%. Moreover, the “Assay Day 14” value was 96.0% and 96.3%.
